Experimental data published in patent publication US20120269802A1, “Treatment And Prognosis With Thalidomide In Multiple Myeloma Based on Karyotyping And Gene Expression Profiling” (Board Of Trustees Of The University Of Arkansas, priority 2009, published 2012).

Test system: multiple myeloma
Assay: Total Therapy 2 (TT2) randomized trial, control arm vs thalidomide arm: survival (Kaplan-Meier, Cox regression)
Format: in vivo, patients
Details: for Overall Survival HR (95% CI), randomization to thalidomide: all patients with GEP data
Text: To clarify the underlying mechanism, survival was examined in the 351 patients for whom gene expression profiling and cytogenetic data were available. […] Survival in the context of cytogenetic abnormalities involving chromosomal loci (CA1, CA13) was also examined. Statistical methods including Cox regression modeling were employed to define variables independently impacting outcomes.
Of all 668 patients accrued to TT2, the 351 with gene expression profiling data available on CD138-purified plasma cells prior to initiation of therapy are the subjects of this report. […] The sole clinical outcome focus in this example is the overall survival measured from initiation of therapy.
Kaplan-Meier methods were used to generate survival distribution graphs and comparisons were made using the log-rank test. Categorical comparisons were made using the chi-squared test. Running log-rank tests were used to determine optimal cut points for IL6R expression levels. Multivariate analyses applied stepwise selection and Cox proportional hazard regression modeling.
In each of Tables 2-3: HR—Hazard Ratio, 95% Cl-95% Confidence Interval, P-value from Wald Chi-Square Test in Cox Regression NS2-Multivariate results not statistically significant at 0.05 level. All univariate p-values reported regardless of significance. Multivariate model uses stepwise selection with entry level 0.1 and variable remains if meets the 0.05 level. A multivariate p-value greater than 0.05 indicates variable forced into model with significant variables chosen using stepwise selection. Variables considered for the multivariate model were: Cytogenetic abnormalities, CA1, CA13, CA 1+13, Albumin <3.5 g/dL, B2M >5.5 mg/L, Creatinine ≧2 mg/dL, Hb <10 g/dL, LDH ≧190 U/L, GEP high-risk, GEP TP53 deletion, GEP IL6R expression ≧2900, GEP CKS1B Q4, Randomization to thalidomide, IL6R and CA 1+13 (interaction term).

For `O=C1CCC(N2C(=O)c3ccccc3C2=O)C(=O)N1` (stereo not shown) [thalidomide], the 7-year survival estimate (GEP-defined low-risk myeloma, subset displaying cytogenetic abnormalities, thalidomide arm vs 30% on control arm, p=0.004 (FIG. 1B)) was 67%, the “outcome vs control arm” value (all patients with GEP-defined low-risk myeloma, p=0.13) was “only trending toward better outcomes” and the 5-year survival estimate (low-risk patients, CA1/13 subgroup (CA without both CA1 and CA13), addition of thalidomide vs 59% control, p<0.001 (FIG. 1C)) was 95%. The “survival outcomes on both treatment arms” value (low-risk patients, subgroups with no cytogenetic abnormalities and with CA1+13 (FIG. 1C)) was “similar”, the “Overall Survival HR (95% CI), randomization to thalidomide” value (multivariate analysis, n/N 168/337, P 0.037) was 0.69 (0.49, 0.98) and the “OS from Enrollment HR (95% CI), CA with thalidomide randomization (interaction term)” value (multivariate analysis, patients with GEP-defined low-risk, n/N 33/304, P 0.003) was 0.27 (0.11, 0.64). The “OS from Enrollment HR (95% CI), randomization to thalidomide” value (multivariate analysis, patients with GEP-defined low-risk, n/N 149/304, P 0.766) was 1.08 (0.65, 1.79), the 7-year survival (patients exhibiting cytogenetic abnormalities (CA), randomized to thalidomide in TT2, vs 25% on control arm, p=0.015 (FIG. 1A)) was 54% and the “Overall Survival HR (95% CI), randomization to thalidomide” value (univariate analysis, n/N 175/351, P 0.158) was 0.78 (0.56, 1.10). For the same compound, the “OS from Enrollment HR (95% CI), randomization to thalidomide” value (univariate analysis, patients with GEP-defined low-risk, n/N 149/305, P 0.140) was 0.74 (0.50, 1.10).
